{"source": "patent US9011938B2", "about": "“Methods and formulations for treating chronic liver disease” (priority 2008, dated 2015)", "origin": "cited, not measured here", "key": {"[1]": {"system": "HCV internal ribosome entry site (IRES)", "conditions": "in vitro, dose-dependant, not competitive binding"}, "[2]": {"system": "mice induced with an immunological liver injury"}, "[3]": {"system": "tumor necrosis factor-alpha (TNF-α)", "conditions": "subjects suffering from alcoholic hepatitis"}, "[4]": {"system": "rats with fatty liver induced by a high-fat diet"}}, "note": "Structures can show the parent of a compound that is named as a salt."}
{"compound": "cyanocobalamin [vitamin B12]", "values": [{"measurement": "HCV IRES-dependent translation of a reporter gene", "setting": "[1]", "result": "inhibit"}]}
{"compound": "C[C@@]12C[C@@]3(O)O[C@@H](O1)[C@]1(COC(=O)c4ccccc4)[C@H]3C[C@@]12O[C@@H]1O[C@H](CO)[C@@H](O)[C@H](O)[C@H]1O", "note": "[paeoniflorin]", "values": [{"measurement": "increase in TNF-alpha, lipopolysaccharide binding protein, and CD14 mRNA expression in mouse liver", "setting": "[2]", "result": "significantly decreased"}, {"measurement": "serum ALT activities", "setting": "[2]", "result": "significantly decrease"}]}
{"compound": "N[C@@H](CCC(=O)N[C@@H](CS)C(=O)NCC(=O)O)C(=O)O", "note": "[glutathione, Glutathione]", "values": [{"measurement": "TNF-α activity", "setting": "[3]", "result": "inhibits"}]}
{"compound": "COc1ccc2cc3[n+](cc2c1OC)CCc1cc2c(cc1-3)OCO2", "note": "[berberine hydrochloride]", "values": [{"measurement": "hepatic fat degeneration", "setting": "[4]", "result": "attenuates"}]}
